Results taken from patent US12655116B2, “Substituted isophthalic acid diamides” (Bayer Aktiengesellschaft, priority 2020, dated 2026).

How the values were obtained:
[1] = tested on: LOLRI; test: Pre-emergence herbicidal action against LOLRI; type: in vivo, Lolium rigidum; conditions: Lolium rigidum, 504 h
Method in brief: (§1)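 Herbicidal effect was assessed 3 weeks after treatment by visual comparison with untreated controls, 100% denoting dead plants. Aqueous WP or EC preparations had been applied at 600 to 800 l/ha with 0.2% wetting agent to the soil covering freshly sown seeds.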

[2] = tested on: VERPE; test: Pre-emergence herbicidal action against VERPE; type: in vivo, Veronica persica; conditions: Veronica persica, 504 h; for pest or weed control at 80 g/ha: dosage 80 g/ha; for pest or weed control at 320 g/ha: dosage 320 g/ha
Method in brief: as §1

[3] = tested on: AVEFA; test: Post-emergence herbicidal action against AVEFA; type: in vivo, Avena fatua; conditions: Avena fatua, 504 h, visual assessment about 3 weeks after treatment, 100% = plants have died, 0% = like control plants
Method in brief: (§2)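 Post-emergence greenhouse test; one-leaf stage, 2–3 wk post-sowing, sandy loam. Foliar spray of WP/EC in water, 600–800 l/ha, +0.2% wetting agent. Visual % action at ~3 wk vs untreated (100% = plants dead).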

[4] = tested on: HORMU; test: Pre-emergence herbicidal action against HORMU; type: in vivo, Hordeum murinum; conditions: for pest or weed control at 320 g/ha / pest or weed control at 80 g/ha: Hordeum murinum, 504 h, pre-emergence
Method in brief: as §1

[5] = tested on: ABUTH; test: Pre-emergence herbicidal action against ABUTH; type: in vivo, Abutilon theophrasti; conditions: Abutilon theophrasti, 504 h; for pest or weed control at 80 g/ha: scored visually after 3 weeks vs untreated controls (100% = plants have died, 0% = like control plants); for pest or weed control at 320 g/ha: Dosage: 320 g/ha, scored visually after 3 weeks; for pest or weed control at 320 g/ha / pest or weed control at 20 g/ha: 100% = plants have died, 0% = like control plants; for pest or weed control at 20 g/ha: dosage 20 g/ha, scored visually after 3 weeks vs untreated controls, read-out: Pre-emergence action against ABUTH (herbicidal activity in percent)
Method in brief: as §1

[6] = tested on: ABUTH; test: Post-emergence herbicidal action against ABUTH; type: in vivo, Abutilon theophrasti; conditions: Abutilon theophrasti, 504 h, visual assessment about 3 weeks after treatment vs untreated controls; for pest or weed control at 5 g/ha: dosage 5 g/ha; for pest or weed control at 20 g/ha: dosage 20 g/ha; for pest or weed control at 80 g/ha: dosage 80 g/ha
Method in brief: as §2

[7] = tested on: ALOMY; test: Post-emergence herbicidal action against ALOMY; type: in vivo, Alopecurus myosuroides; conditions: Alopecurus myosuroides, 504 h, dosage 80 g/ha, visual assessment about 3 weeks after treatment vs untreated controls
Method in brief: as §2

[8] = tested on: VIOTR; test: Post-emergence herbicidal action against VIOTR; type: in vivo, Viola tricolor; conditions: Viola tricolor, 504 h
Method in brief: as §2

[9] = tested on: POLCO; test: Pre-emergence herbicidal action against POLCO; type: in vivo, Polygonum convolvulus; conditions: Fallopia convolvulus, 504 h; for pest or weed control at 320 g/ha: dosage 320 g/ha
Method in brief: as §1

[10] = tested on: AVEFA; test: Pre-emergence herbicidal action against AVEFA; type: in vivo, Avena fatua; conditions: Avena fatua, 504 h, pre-emergence
Method in brief: as §1

[11] = tested on: SETVI; test: Post-emergence herbicidal action against SETVI; type: in vivo, Setaria viridis; conditions: Setaria viridis, 504 h; for pest or weed control at 80 g/ha: dosage 80 g/ha
Method in brief: as §2

[12] = tested on: VERPE; test: Post-emergence herbicidal action against VERPE; type: in vivo, Veronica persica; conditions: Veronica persica, 504 h
Method in brief: as §2

[13] = tested on: SETVI; test: Pre-emergence herbicidal action against SETVI; type: in vivo, Setaria viridis; conditions: Setaria viridis, 504 h; for pest or weed control at 80 g/ha: dosage 80 g/ha; for pest or weed control at 320 g/ha: dosage 320 g/ha
Method in brief: as §1

[14] = tested on: ECHCG; test: Post-emergence herbicidal action against ECHCG; type: in vivo, Echinochloa crus-galli; conditions: Echinochloa crus-galli, 504 h; for pest or weed control at 80 g/ha: dosage 80 g/ha
Method in brief: as §2

[15] = tested on: AMARE; test: Pre-emergence herbicidal action against AMARE; type: in vivo, Amaranthus retroflexus; conditions: Amaranthus retroflexus, 504 h, 100% = plants have died, 0% = like control plants; for pest or weed control at 20 g/ha / pest or weed control at 80 g/ha: scored visually after 3 weeks vs untreated controls; for pest or weed control at 320 g/ha: scored visually after 3 weeks
Method in brief: as §1

[16] = tested on: ALOMY; test: Pre-emergence herbicidal action against ALOMY; type: in vivo, Alopecurus myosuroides; conditions: Alopecurus myosuroides, pre-emergence, 504 h; for pest or weed control at 320 g/ha: scored visually after 3 weeks, 100% = plants have died, 0% = like control plants; for pest or weed control at 80 g/ha: scored visually after 3 weeks vs untreated controls (100% = plants have died, 0% = like control plants)
Method in brief: as §1

[17] = tested on: MATIN; test: Pre-emergence herbicidal action against MATIN; type: in vivo, Matricaria inodora; conditions: Tripleurospermum inodorum, 504 h; for pest or weed control at 80 g/ha: dosage 80 g/ha; for pest or weed control at 320 g/ha: dosage 320 g/ha
Method in brief: as §1

[18] = tested on: STEME; test: Post-emergence herbicidal action against STEME; type: in vivo, Stellaria media; conditions: Stellaria media, 504 h
Method in brief: as §2

[19] = tested on: STEME; test: Pre-emergence herbicidal action against STEME; type: in vivo, Stellaria media; conditions: Stellaria media, 504 h; for pest or weed control at 80 g/ha: dosage 80 g/ha; for pest or weed control at 320 g/ha: dosage 320 g/ha
Method in brief: as §1

[20] = tested on: PHBPU; test: Post-emergence herbicidal action against PHBPU; type: in vivo, Pharbitis purpurea; conditions: Ipomoea purpurea, 504 h; for pest or weed control at 80 g/ha: dosage 80 g/ha
Method in brief: as §2

[21] = tested on: HORMU; test: Post-emergence herbicidal action against HORMU; type: in vivo, Hordeum murinum; conditions: Hordeum murinum, 504 h; for pest or weed control at 80 g/ha: dosage 80 g/ha
Method in brief: as §2

[22] = tested on: MATIN; test: Post-emergence herbicidal action against MATIN; type: in vivo, Matricaria inodora; conditions: Tripleurospermum inodorum, 504 h, dosage 80 g/ha
Method in brief: as §2

[23] = scored visually after 3 weeks, 100% = plants have died, 0% = like control plants
[24] = 20 g/ha, scored visually after 3 weeks, 100% = plants have died, 0% = like control plants

Cn1nnnc1NC(=O)c1ccc(C(F)(F)F)c(C(N)=O)c1Cl [Example 1-338]
pest or weed control at 320 g/ha [1]: 90% | pest or weed control at 80 g/ha [2]: 90% | pest or weed control at 320 g/ha [2]: 100% | pest or weed control at 20 g/ha ([3]; 20 g/ha): 80% | pest or weed control at 80 g/ha [3]: 100% | pest or weed control at 320 g/ha [4]: 100% | pest or weed control at 80 g/ha [5]: 100% | pest or weed control at 320 g/ha [5]: 100% | pest or weed control at 20 g/ha [5]: 80% | pest or weed control at 5 g/ha [6]: 90% | pest or weed control at 20 g/ha [6]: 90% | pest or weed control at 80 g/ha [6]: 100% | pest or weed control at 80 g/ha [7]: 100% | pest or weed control at 80 g/ha [8]: 90% | pest or weed control at 320 g/ha [9]: 80% | pest or weed control at 80 g/ha [10]: 90% | pest or weed control at 320 g/ha [10, 23]: 100% | pest or weed control at 20 g/ha ([11]; dosage 20 g/ha): 80% | pest or weed control at 80 g/ha [11]: 100% | pest or weed control at 80 g/ha [12]: 100% | pest or weed control at 80 g/ha [13]: 90% | pest or weed control at 320 g/ha [13]: 100% | pest or weed control at 20 g/ha ([14]; dosage 20 g/ha): 90% | pest or weed control at 80 g/ha [14]: 90% | pest or weed control at 20 g/ha [15]: 100% | pest or weed control at 80 g/ha [15]: 100% | pest or weed control at 320 g/ha [15]: 100% | pest or weed control at 320 g/ha [16]: 100% | pest or weed control at 80 g/ha [17]: 80% | pest or weed control at 320 g/ha [17]: 100% | pest or weed control at 80 g/ha [18]: 90% | pest or weed control at 80 g/ha [19]: 90% | pest or weed control at 320 g/ha [19]: 90% | pest or weed control at 80 g/ha [20]: 90% | pest or weed control at 20 g/ha ([21]; dosage 20 g/ha): 80% | pest or weed control at 80 g/ha [21]: 90%

CCn1nnnc1NC(=O)c1ccc(C(F)(F)F)c(C(=O)NC(C)=O)c1Cl [Example 2-337]
pest or weed control at 80 g/ha ([1]; 80 g/ha): 80% | pest or weed control at 320 g/ha [1]: 90% | pest or weed control at 20 g/ha ([2]; dosage 20 g/ha): 80% | pest or weed control at 80 g/ha [2]: 90% | pest or weed control at 320 g/ha [2]: 90% | pest or weed control at 80 g/ha [3]: 90% | Pre-emergence action against HORMU [4, 24]: 90% | pest or weed control at 80 g/ha [4]: 90% | pest or weed control at 320 g/ha [4]: 100% | pest or weed control at 80 g/ha [5]: 100% | pest or weed control at 320 g/ha [5]: 100% | pest or weed control at 20 g/ha [5]: 100% | pest or weed control at 20 g/ha [6]: 100% | pest or weed control at 80 g/ha [6]: 100% | pest or weed control at 80 g/ha [7]: 90% | pest or weed control at 80 g/ha [8]: 90% | pest or weed control at 320 g/ha [9]: 80% | pest or weed control at 80 g/ha [10]: 100% | pest or weed control at 20 g/ha [10, 24]: 90% | pest or weed control at 320 g/ha [10, 23]: 100% | pest or weed control at 5 g/ha ([12]; 5 g/ha): 80% | pest or weed control at 20 g/ha [12]: 100% | pest or weed control at 80 g/ha [12]: 100% | pest or weed control at 20 g/ha ([13]; dosage 20 g/ha): 90% | pest or weed control at 80 g/ha [13]: 100% | pest or weed control at 320 g/ha [13]: 100% | pest or weed control at 80 g/ha [14]: 90% | pest or weed control at 20 g/ha [15]: 90% | pest or weed control at 80 g/ha [15]: 100% | pest or weed control at 320 g/ha [15]: 100% | pest or weed control at 80 g/ha [16]: 90% | pest or weed control at 320 g/ha [16]: 100% | pest or weed control at 20 g/ha ([17]; dosage 20 g/ha): 80% | pest or weed control at 80 g/ha [17]: 100% | pest or weed control at 320 g/ha [17]: 100% | pest or weed control at 20 g/ha [18]: 90% | pest or weed control at 80 g/ha [18]: 90% | pest or weed control at 20 g/ha ([19]; dosage 20 g/ha): 90% | pest or weed control at 80 g/ha [19]: 90% | pest or weed control at 320 g/ha [19]: 100% | pest or weed control at 80 g/ha [20]: 80%

CCCn1nnnc1NC(=O)c1ccc(C(F)(F)F)c(C(N)=O)c1Cl [Example 3-338]
pest or weed control at 80 g/ha [2]: 90% | pest or weed control at 320 g/ha [2]: 100% | pest or weed control at 80 g/ha [3]: 100% | pest or weed control at 80 g/ha [4]: 80% | pest or weed control at 320 g/ha [4]: 100% | pest or weed control at 80 g/ha [5]: 100% | pest or weed control at 320 g/ha [5]: 100% | pest or weed control at 20 g/ha [5]: 90% | pest or weed control at 5 g/ha [6]: 90% | pest or weed control at 20 g/ha [6]: 90% | pest or weed control at 80 g/ha [6]: 100% | pest or weed control at 80 g/ha [7]: 100% | pest or weed control at 20 g/ha ([8]; 20 g/ha): 90% | pest or weed control at 80 g/ha [8]: 100% | pest or weed control at 80 g/ha ([9]; dosage 80 g/ha): 80% | pest or weed control at 320 g/ha [9]: 80% | pest or weed control at 80 g/ha [10]: 90% | pest or weed control at 320 g/ha [10, 23]: 100% | pest or weed control at 80 g/ha [11]: 90% | pest or weed control at 80 g/ha [22]: 80% | pest or weed control at 20 g/ha [12]: 90% | pest or weed control at 80 g/ha [12]: 90% | pest or weed control at 320 g/ha [13]: 100% | pest or weed control at 80 g/ha [14]: 80% | pest or weed control at 20 g/ha [15]: 80% | pest or weed control at 80 g/ha [15]: 100% | pest or weed control at 320 g/ha [15]: 100% | pest or weed control at 80 g/ha [16]: 80% | pest or weed control at 320 g/ha [16]: 100% | pest or weed control at 80 g/ha [17]: 90% | pest or weed control at 320 g/ha [17]: 100% | pest or weed control at 20 g/ha [18]: 100% | pest or weed control at 80 g/ha [18]: 100% | pest or weed control at 5 g/ha ([18]; dosage 5 g/ha): 80% | pest or weed control at 80 g/ha [19]: 90% | pest or weed control at 320 g/ha [19]: 100% | pest or weed control at 20 g/ha ([20]; dosage 20 g/ha): 80% | pest or weed control at 80 g/ha [20]: 90% | pest or weed control at 80 g/ha [21]: 100%
